Measurements published in ChEMBL document CHEMBL1201862, “PubChem BioAssay data set” (2004).
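48-hour exposure; five concentrations; linearly interpolated endpoints. Here, GI50 denotes the concentration required for 50% inhibition of growth.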 The source made the active and inactive calls. Cut-off read from the data, not from the text of the source: active = GI50 up to about 1.1 µM and inactive = higher. Where a SMILES comes first, the peptide text is derived from it. The star is where a group is joined. Boc = CC(C)(C)OC(=O)*; Bn = c1ccc(C*)cc1

Experiments:
Assay in all cases: inhibition of tumour cell growth, NCI panel, 48 h
KM12 = tested on: KM12
NCI-H226 = tested on: NCI-H226
SR = tested on: SR
EKVX = tested on: EKVX
T47D = tested on: T47D
UACC-62 = tested on: UACC-62
SF-539 = tested on: SF-539
OVCAR-5 = tested on: OVCAR-5
HOP-62 = tested on: HOP-62
SK-MEL-5 = tested on: SK-MEL-5
DU-145 = tested on: DU-145
Malme-3M = tested on: Malme-3M
SW-620 = tested on: SW-620
K562 = tested on: K562
A498 = tested on: A498
Hs-578T = tested on: Hs-578T
M14 = tested on: M14
MCF7 = tested on: MCF7
U-251 = tested on: U-251
RPMI-8226 = tested on: RPMI-8226

Measured: GI50

CCn1cc(C(=O)O)c(=O)c2cc(F)c(N3CCN(CN4C(=O)/C(=N\NC(=O)c5ccncc5)c5cc(Cl)ccc54)CC3)cc21
inactive: KM12 40.3 µM | NCI-H226 > 100 µM | SR 2.34 µM | EKVX 32.6 µM | T47D 29.4 µM | UACC-62 58.7 µM | SF-539 24.7 µM | OVCAR-5 > 100 µM | HOP-62 22.9 µM | SK-MEL-5 42.2 µM | DU-145 24 µM | Malme-3M 86.1 µM | SW-620 23.4 µM | K562 18.7 µM | A498 > 100 µM | Hs-578T 45.2 µM | M14 54 µM | MCF7 28.2 µM | U-251 33 µM

CCN(CC)CCC(=O)c1ccc(Oc2ccc(Cl)cc2)cc1
inactive: KM12 14.4 µM | SR 20.1 µM | EKVX 19.5 µM | T47D 20.7 µM | UACC-62 18.6 µM | SF-539 24.8 µM | OVCAR-5 16.2 µM | HOP-62 11.8 µM | SK-MEL-5 17.5 µM | DU-145 21.6 µM | Malme-3M 18 µM | SW-620 22 µM | K562 31.8 µM | A498 16.1 µM | RPMI-8226 3.82 µM | Hs-578T 23.6 µM | M14 15.1 µM | MCF7 17.7 µM | U-251 16.9 µM

CCOC(=O)/C=C(\C(=O)OCC)n1ccc(=O)n(CC(=O)OCC)c1=O
inactive: KM12 15.1 µM | NCI-H226 6.52 µM | SR 2.17 µM | EKVX 6.59 µM | T47D 2.44 µM | UACC-62 7.36 µM | SF-539 16.6 µM | OVCAR-5 4.95 µM | HOP-62 20.7 µM | SK-MEL-5 13 µM | DU-145 17.3 µM | Malme-3M 2.48 µM | SW-620 1.23 µM | K562 1.68 µM | A498 17.7 µM | Hs-578T 20 µM | M14 2.09 µM | MCF7 3.16 µM | U-251 6.25 µM

C=C1C/C(=C/C)C(=O)O[C@@H]2CCN3CC=C(COC(=O)[C@]1(C)O)[C@H]23 [SENECIPHYLLINE]
inactive: KM12 > 100 µM | NCI-H226 35.5 µM | SR > 100 µM | EKVX > 100 µM | T47D > 100 µM | UACC-62 > 100 µM | SF-539 > 100 µM | OVCAR-5 > 100 µM | HOP-62 > 100 µM | SK-MEL-5 > 100 µM | DU-145 > 100 µM | SW-620 > 100 µM | K562 > 100 µM | A498 > 100 µM | RPMI-8226 > 100 µM | Hs-578T > 100 µM | M14 > 100 µM | MCF7 > 100 µM | U-251 > 100 µM

COC(=O)C1=C(C)NC(C)=C(C(=O)OC)C1c1cccc(/[N+]([O-])=C/c2ccccc2)c1
inactive: KM12 > 100 µM | NCI-H226 > 100 µM | SR 21.8 µM | EKVX 72.8 µM | T47D 17.3 µM | UACC-62 28.5 µM | SF-539 > 100 µM | OVCAR-5 > 100 µM | HOP-62 > 100 µM | SK-MEL-5 > 100 µM | DU-145 78 µM | Malme-3M 16.3 µM | SW-620 21.3 µM | K562 > 10 µM | RPMI-8226 24.4 µM | Hs-578T 42.1 µM | M14 18.6 µM | MCF7 17.8 µM | U-251 > 100 µM

COC(=O)C(CC(C)C)NC(=O)C(C)NC(=O)C(Cc1ccc(OCc2ccccc2)cc1)NC(=O)C(COCc1ccccc1)NC(=O)OC(C)(C)C (stereo unspecified) (Boc-S(Bn)Y(Bn)AL-OMe; configuration not given here)
inactive: KM12 > 100 µM | NCI-H226 > 100 µM | SR > 100 µM | EKVX > 100 µM | T47D > 100 µM | UACC-62 96.6 µM | SF-539 > 100 µM | OVCAR-5 > 100 µM | HOP-62 > 100 µM | SK-MEL-5 > 100 µM | DU-145 > 100 µM | Malme-3M > 100 µM | SW-620 > 100 µM | K562 > 100 µM | RPMI-8226 > 100 µM | Hs-578T 58.3 µM | M14 > 100 µM | MCF7 > 100 µM | U-251 > 100 µM

COC(=O)C[C@H]1[C@]2(C)C3=C(C)[C@H](c4ccoc4)CC3O[C@@H]2[C@@H]2OC(=O)[C@]3(C)CCC(=O)[C@@]1(C)[C@@H]23 (stereo partly specified)
inactive: KM12 > 100 µM | SR 19.6 µM | T47D > 100 µM | UACC-62 49.2 µM | OVCAR-5 27.5 µM | HOP-62 > 100 µM | SK-MEL-5 56.6 µM | DU-145 32.4 µM | Malme-3M 40.4 µM | SW-620 50.6 µM | K562 35.2 µM | A498 > 100 µM | RPMI-8226 19.1 µM | Hs-578T 36.1 µM | M14 41.6 µM | MCF7 31.4 µM | U-251 60.8 µM
